Assay results taken from patent US10294202B2, “Pyrrolidinones as herbicides” (FMC Corporation, priority 2013, dated 2019).
Like-named read-outs stand apart in the source and are kept apart here.

Columns and labels:
giant foxtail = test: Test A pre-/postemergence herbicide test; type: in vivo, Setaria faberii; conditions: for Foxtail, Giant plant response rating: Preemergence, visual rating on 0 to 100 scale (0 no effect, 100 complete control); for pest or weed control at 125 g/ha / pest or weed control at 500 g/ha: Setaria faberi, 240 h, read-out: Plant response rating, Foxtail, Giant
Outline: (§1)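 Approximately 10 days after treatment in the greenhouse, plants were compared with untreated controls and given a 0–100 visual injury rating. Applications: preemergence directed soil spray; postemergence on 2–10 cm plants at the one- to two-leaf stage.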

pigweed = test: Test A pre-/postemergence herbicide test; type: in vivo, Amaranthus retroflexus; conditions: for Pigweed plant response rating: Preemergence, visual rating on 0 to 100 scale (0 no effect, 100 complete control); for pest or weed control at 125 g/ha / pest or weed control at 500 g/ha: Amaranthus retroflexus, 240 h, read-out: Plant response rating, Pigweed
Outline: as §1

wheat = test: Test A pre-/postemergence herbicide test; type: in vivo, Triticum aestivum; conditions: for Wheat plant response rating: Preemergence, visual rating on 0 to 100 scale (0 no effect, 100 complete control); for plant injury at 125 g/ha / plant injury at 500 g/ha: Triticum aestivum, 240 h, read-out: Plant response rating, Wheat
Outline: as §1

sedge, umbrella = test: Test B flooded paddy test; type: in vivo, Cyperus difformis; conditions: Flood, scale of 0 to 100 where 0 is no effect and 100 is complete control
Outline: (§2)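 Scored visually 0–100 (0 no effect, 100 complete control) versus controls after 13 to 15 greenhouse days. Treatment: compound added to paddy water kept 3 cm above soil, on 2-leaf-stage plants.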

ducksalad = test: Test B flooded paddy test; type: in vivo, Heteranthera limosa; conditions: Flood, scale of 0 to 100 where 0 is no effect and 100 is complete control
Outline: as §2

wheat (winter wheat) = test: Test C pre-/postemergence herbicide test; type: in vivo, Triticum aestivum; conditions: Preemergence; for Plant response rating (scale of 0 to 100), Wheat: 250 g ai/ha
Text: (§3) Seeds of plant species selected from blackgrass (Alopecurus myosuroides), ryegrass, Italian (Italian ryegrass, Lolium multiflorum), wheat (winter wheat, Triticum aestivum), galium (catchweed bedstraw, Galium aparine), corn (Zea mays), crabgrass, large (large crabgrass, Digitaria sanguinalis), foxtail, giant (giant foxtail, Setaria faberii), johnsongrass (Sorghum halepense), lambsquarters (Chenopodium album), morningglory (Ipomoea coccinea), nutsedge, yellow (yellow nutsedge, Cyperus esculentus), pigweed (Amaranthus retroflexus), ragweed (common ragweed, Ambrosia elatior), soybean (Glycine max), barnyardgrass (Echinochloa crus-galli), oilseed rape (Brassica napus), waterhemp (common waterhemp, Amaranthus rudis), kochia (Kochia scoparia), oat, wild (wild oat, Avena fatua), surinam grass (Brachiaria decumbens), foxtail, green (green foxtail, Setaria viridis), goosegrass (Eleusine indica), bromegrass, downy (downy bromegrass, Bromus tectorum), nightshade (eastern black nightshade, Solanum ptycanthum), cocklebur (common cocklebur, Xanthium strumarium), cupgrass, woolly (woolly cupgrass, Eriochloa villosa), bermudagrass (Cynodon dactylon), sunflower, (common oilseed sunflower, Helianthus annuus), Russian thistle (Salsola kali) and velvetleaf (Abutilon theophrasti) were planted into a blend of loam soil and sand and treated preemergence with test chemicals formulated in a non-phytotoxic solvent mixture which included a surfactant. At the same time, plants selected from these crop and weed species and also barley (winter barley, Hordeum vulgare), […]), chickweed (common chickweed, Stellaria media), deadnettle (henbit deadnettle, Lamium amplexicaule), and canarygrass (littleseed canarygrass, Phalaris minor) were planted in pots containing Redi-Earth® planting medium (Scotts Company, 14111 Scottslawn Road, Marysville, Ohio 43041) comprising spaghnum peat moss, vermiculite, wetting agent and starter nutrients and treated with postemergence applications of test chemicals formulated in the same manner. Plants ranged in height from 2 to 18 cm (1- to 4-leaf stage) for postemergence treatments. Treated plants and controls were maintained in a greenhouse for 13 to 15 days, after which time all species were compared to controls and visually evaluated. Plant response ratings, summarized in Table C, are based on a scale of 0 to 100 where 0 is no effect and 100 is complete control. A dash (-) response means no test result.

nutsedge, yellow = test: Test C pre-/postemergence herbicide test; type: in vivo, Cyperus esculentus; conditions: Preemergence; for Plant response rating (scale of 0 to 100), Nutsedge, Yellow: 250 g ai/ha
Text: as §3

ragweed = test: Test C pre-/postemergence herbicide test; type: in vivo, Ambrosia elatior; conditions: Preemergence
Text: as §3

soybean = test: Test C pre-/postemergence herbicide test; type: in vivo, Glycine max; conditions: Preemergence; for Plant response rating (scale of 0 to 100), Soybean: 250 g ai/ha
Text: as §3

oilseed rape = test: Test C pre-/postemergence herbicide test; type: in vivo, Brassica napus; conditions: Preemergence; for Plant response rating (scale of 0 to 100), Oilseed Rape: 250 g ai/ha
Text: as §3

waterhemp = test: Test C pre-/postemergence herbicide test; type: in vivo, Amaranthus rudis; conditions: Preemergence; for Plant response rating (scale of 0 to 100), Waterhemp: 250 g ai/ha
Text: as §3

[1] = 125 g ai/ha, visual rating, 0 to 100 scale, 0 no effect, 100 complete control, approximately 10 days, preemergence
[2] = Postemergence, 125 g ai/ha, 0 to 100 scale, 0 is no effect, 100 is complete control
[3] = preemergence, 500 g ai/ha, 0 to 100 scale, 0 is no effect and 100 is complete control
[4] = 31 g ai/ha, scale 0 to 100, 0 is no effect and 100 is complete control
[5] = 62 g ai/ha, scale 0 to 100 (0 no effect, 100 complete control)
[6] = 125 g ai/ha, scale 0 to 100 (0 no effect, 100 complete control)
[7] = Postemergence, 125 g ai/ha, 0 to 100 scale, 0 no effect, 100 complete control
[8] = Postemergence, 500 g ai/ha, 0 to 100 scale (0 no effect, 100 complete control)
[9] = preemergence, 500 g ai/ha, 0 to 100 scale
[10] = post-emergence, Postemergence, 125 g ai/ha, 0 to 100 scale, 0 no effect, 100 complete control
[11] = post-emergence, Postemergence, 500 g ai/ha, 0 to 100 scale (0 no effect, 100 complete control)
[12] = pre-emergence, preemergence, 500 g ai/ha, 0 to 100 scale

O=C1NCC(c2ccc(Cl)cc2)C1C(=O)Nc1cccc(F)c1F (stereo not drawn) [Compound 218]
Plant response rating, Foxtail, Giant (giant foxtail; [1]): 90 | Plant response rating, Foxtail, Giant (giant foxtail; [2]): 60 | Foxtail, Giant plant response rating (0 to 100 scale, 0 is no effect, 100 is complete control) (giant foxtail; Postemergence, 500 g ai/ha): 90 | Plant response rating, Foxtail, Giant (giant foxtail; [3]): 90 | Plant response rating, Pigweed (pigweed; [1]): 30 | Plant response rating, Pigweed (pigweed; [2]): 0 | Pigweed plant response rating (0 to 100 scale, 0 is no effect, 100 is complete control) (pigweed; Postemergence, 500 g ai/ha): 40 | Plant response rating, Pigweed (pigweed; [3]): 70 | Plant response rating, Wheat (wheat; [2]): 20 | Wheat plant response rating (0 to 100 scale, 0 is no effect, 100 is complete control) (wheat; Postemergence, 500 g ai/ha): 50 | Plant response rating, Sedge, Umbrella (sedge, umbrella; 500 g ai/ha): 0 | Plant response rating, Ducksalad (ducksalad; 500 g ai/ha): 100 | Wheat plant response rating (wheat (winter wheat); [4]): 0 | Wheat plant response rating (wheat (winter wheat); [5]): 0 | Plant response rating, Wheat (wheat (winter wheat); [6]): 0 | Plant response rating (scale of 0 to 100), Wheat (wheat (winter wheat)): 10 | Nutsedge, Yellow plant response rating (nutsedge, yellow; [4]): 0 | Nutsedge, Yellow plant response rating (nutsedge, yellow; [5]): 0 | Plant response rating, Nutsedge, Yellow (nutsedge, yellow; [6]): 0 | Plant response rating (scale of 0 to 100), Nutsedge, Yellow (nutsedge, yellow): 0 | Ragweed plant response rating (ragweed; [4]): 40 | Ragweed plant response rating (ragweed; [5]): 35 | Plant response rating, Ragweed (ragweed; [6]): 50 | Plant response rating (scale of 0 to 100), Ragweed (ragweed; 250 g ai/ha): 85 | Soybean plant response rating (soybean; [4]): 0 | Soybean plant response rating (soybean; [5]): 5 | Plant response rating, Soybean (soybean; [6]): 40 | Plant response rating (scale of 0 to 100), Soybean (soybean): 20 | Oilseed Rape plant response rating (oilseed rape; [4]): 0 | Oilseed Rape plant response rating (oilseed rape; [5]): 60 | Plant response rating, Oilseed Rape (oilseed rape; [6]): 20 | Plant response rating (scale of 0 to 100), Oilseed Rape (oilseed rape): 70 | Waterhemp plant response rating (waterhemp; [4]): 30 | Waterhemp plant response rating (waterhemp; [5]): 75 | Plant response rating, Waterhemp (waterhemp; [6]): 90 | Plant response rating (scale of 0 to 100), Waterhemp (waterhemp): 90

O=C1NCC(c2ccc(F)c(C(F)(F)F)c2)C1C(=O)Nc1cccc(F)c1F (racemic) [Compound 77]
Plant response rating, Foxtail, Giant (giant foxtail; [7]): 80 | Plant response rating, Foxtail, Giant (giant foxtail; [8]): 80 | Foxtail, Giant plant response rating (giant foxtail; 125 g ai/ha): 90 | Plant response rating, Foxtail, Giant (giant foxtail; [9]): 90 | Plant response rating, Pigweed (pigweed; [7]): 40 | Plant response rating, Pigweed (pigweed; [8]): 50 | Pigweed plant response rating (pigweed; 125 g ai/ha): 40 | Plant response rating, Pigweed (pigweed; [9]): 70 | Plant response rating, Wheat (wheat; [7]): 50 | Plant response rating, Wheat (wheat; [8]): 60 | Wheat plant response rating (wheat; 125 g ai/ha): 0 | Plant response rating, Wheat (wheat; [9]): 30 | Plant response rating, Sedge, Umbrella (sedge, umbrella; 250 g ai/ha): 0 | Plant response rating, Ducksalad (ducksalad; 250 g ai/ha): 100 | Wheat plant response rating (wheat (winter wheat); [4]): 0 | Plant response rating, Wheat (wheat (winter wheat); 62 g ai/ha, scale 0 to 100): 55 | Plant response rating, Wheat (wheat (winter wheat); [6]): 80 | Plant response rating (scale of 0 to 100), Wheat (wheat (winter wheat)): 90 | Nutsedge, Yellow plant response rating (nutsedge, yellow; [4]): 0 | Plant response rating, Nutsedge, Yellow (nutsedge, yellow; 62 g ai/ha, scale 0 to 100): 0 | Plant response rating, Nutsedge, Yellow (nutsedge, yellow; [6]): 0 | Plant response rating (scale of 0 to 100), Nutsedge, Yellow (nutsedge, yellow): 0 | Soybean plant response rating (soybean; [4]): 0 | Plant response rating, Soybean (soybean; 62 g ai/ha, scale 0 to 100): 0 | Plant response rating, Soybean (soybean; [6]): 0 | Plant response rating (scale of 0 to 100), Soybean (soybean): 0 | Oilseed Rape plant response rating (oilseed rape; [4]): 0 | Plant response rating, Oilseed Rape (oilseed rape; 62 g ai/ha, scale 0 to 100): 30 | Plant response rating, Oilseed Rape (oilseed rape; [6]): 60 | Plant response rating (scale of 0 to 100), Oilseed Rape (oilseed rape): 85 | Waterhemp plant response rating (waterhemp; [4]): 40 | Plant response rating, Waterhemp (waterhemp; 62 g ai/ha, scale 0 to 100): 40 | Plant response rating, Waterhemp (waterhemp; [6]): 70 | Plant response rating (scale of 0 to 100), Waterhemp (waterhemp): 85

O=C1NCC(c2ccccc2)C1(Br)C(=O)Nc1ccccc1F (stereo not drawn) [Compound 93, 3-bromo-N-(2-fluorophenyl)-2-oxo-4-phenyl-3-pyrrolidinecarboxamide]
Foxtail, Giant plant response rating (giant foxtail; 125 g ai/ha): 80 | pest or weed control at 125 g/ha (giant foxtail; [10]): 10% | pest or weed control at 500 g/ha (giant foxtail; [11]): 60% | pest or weed control at 500 g/ha (giant foxtail; [12]): 90% | pest or weed control at 125 g/ha (pigweed; [10]): 0% | pest or weed control at 500 g/ha (pigweed; [11]): 0% | pest or weed control at 500 g/ha (pigweed; [12]): 0% | Pigweed plant response rating (pigweed; 125 g ai/ha): 0 | Wheat plant response rating (wheat; 125 g ai/ha): 0 | plant injury at 125 g/ha (wheat; [10]): 0% | plant injury at 500 g/ha (wheat; [11]): 0% | plant injury at 500 g/ha (wheat; [12]): 0%

O=C1NCC(Br)(c2ccccc2)C1C(=O)Nc1ccccc1F (stereo not drawn) [Compound 92, 4-bromo-N-(2-fluorophenyl)-2-oxo-4-phenyl-3-pyrrolidinecarboxamide]
Foxtail, Giant plant response rating (giant foxtail; 125 g ai/ha): 0 | pest or weed control at 125 g/ha (giant foxtail; [10]): 0% | pest or weed control at 500 g/ha (giant foxtail; [11]): 10% | pest or weed control at 500 g/ha (giant foxtail; [12]): 90% | pest or weed control at 125 g/ha (pigweed; [10]): 0% | pest or weed control at 500 g/ha (pigweed; [11]): 0% | pest or weed control at 500 g/ha (pigweed; [12]): 0% | Pigweed plant response rating (pigweed; 125 g ai/ha): 0 | Wheat plant response rating (wheat; 125 g ai/ha): 0 | plant injury at 125 g/ha (wheat; [10]): 0% | plant injury at 500 g/ha (wheat; [11]): 0% | plant injury at 500 g/ha (wheat; [12]): 0%

O=C1NCC(c2ccc(F)c(F)c2)C1C(=O)Nc1ccccc1C(F)(F)F (racemic) [Compound 6]
Plant response rating, Foxtail, Giant (giant foxtail; [7]): 70 | Plant response rating, Foxtail, Giant (giant foxtail; [8]): 80 | Foxtail, Giant plant response rating (giant foxtail; 125 g ai/ha): 90 | Plant response rating, Foxtail, Giant (giant foxtail; [9]): 90 | Plant response rating, Pigweed (pigweed; [8]): 10 | Pigweed plant response rating (pigweed; 125 g ai/ha): 0 | Plant response rating, Pigweed (pigweed; [9]): 0 | Plant response rating, Wheat (wheat; [8]): 0 | Wheat plant response rating (wheat; 125 g ai/ha): 0 | Plant response rating, Wheat (wheat; [9]): 0

O=C1NCC(c2cccc(C(F)F)c2)C1C(=O)Nc1ccccc1F (racemic) [Compound 210]
Plant response rating, Foxtail, Giant (giant foxtail; [1]): 80 | Plant response rating, Foxtail, Giant (giant foxtail; [2]): 50 | Foxtail, Giant plant response rating (0 to 100 scale, 0 is no effect, 100 is complete control) (giant foxtail; Postemergence, 500 g ai/ha): 90 | Plant response rating, Foxtail, Giant (giant foxtail; [3]): 90 | Plant response rating, Pigweed (pigweed; [1]): 0 | Plant response rating, Pigweed (pigweed; [2]): 0 | Pigweed plant response rating (0 to 100 scale, 0 is no effect, 100 is complete control) (pigweed; Postemergence, 500 g ai/ha): 20 | Plant response rating, Pigweed (pigweed; [3]): 50 | Plant response rating, Wheat (wheat; [2]): 0 | Wheat plant response rating (0 to 100 scale, 0 is no effect, 100 is complete control) (wheat; Postemergence, 500 g ai/ha): 50
